We go through 3 compounds from patent US20260242427A1 (priority 2024, published 2026).

Experiment [1] addresses T1, human arginase I (hArg, Accession Number: NM_000045.4), free enzyme (Homo sapiens, UniProt P05089).
T1 construct: His tag with thrombin site of pET28 (inferred from the NdeI primer, the stop codon in the reverse primer and nickel purification); made in house; host or cells: E. coli BL21(DE3)
It is filed as biochemical. As to conditions: L-arginine 0-500 mM, 40° C., 50 mM HEPES pH 8.0, 0.1 mM Mn^2+. The protocol: All positive colonies were verified by DNA sequencing (BGI).
Expression and Purification of ODC and hArg Free Enzymes
(§1) All experiments were performed in triplicate.
as §1

Experiment [2] has as its target T2, hArg-Cry1Ab fusion particles (human arginase I fused to the N-terminus of Cry1Ab) (Homo sapiens, UniProt P05089).
T2 construct: His tag of pET28 (inferred from the NdeI forward primer only) (N); made in house; host or cells: E. coli BL21(DE3)
The experiment in a line: Kinetic studies, immobilized hArg-Cry1Ab particles. It is filed as biochemical. The note with it: L-arginine 0-500 mM, 40° C., pH 8.0, 0.1 mM Mn^2+, based on concentration of hArg.

In experiment [3] the target is T3, Pos3Aa crystals (positively charged variant of Cry3Aa, domain II surface residues mutated) (Bacillus thuringiensis, UniProt P0A379).
T3 construct: engineered Cry3Aa, domain II surface residues replaced by Lys/Arg; no PEI; crystals produced in Bacillus thuringiensis (usual host)
The experiment in a line: NADH binding capacity of Pos3Aa crystals. The note with it: 0.25 mM NADH, 10° C., 30 min, 340 nm. The protocol:
Previous studies by our lab had generated a positively charged variant of Cry3Aa, Pos3Aa, by mutating multiple residues on the surface of domain II of Cry3Aa to lysines creating a positively charged surface.
To compare the binding capacity of 3A-PEI crystals with Cry3Aa and Pos3Aa crystals, the same experiment was conducted as the control.
Cry3Aa is a self-crystallization protein produced naturally by certain strains of Bt. Our group has used crystals and particles of Cry3Aa for entrapment of positively charged small peptides and proteins due to the presence of abundant negatively charged residues, aspartic acid (Asp) and glutamic acid (Glu) residues, on the exposed surface of its domain II, which forms the solvent channels (FIG. 1A). We have engineered a protein called Pos3Aa, derived from the replacement of all these residues in domain II of Cry3Aa with positively charged arginine (Arg) and lysine (Lys) residues, which provide positively charged channels within the crystals. We hypothesized that these crystals would be able to entrap negatively charged molecules, such as phosphorylated cofactors, ionically inside the channels. […] Each molecular mass unit of this polymer (43 kDa) has 3 to 3.6-fold higher protonated nitrogen than poly-Arg and poly-Lys (one positive charge per 157 and 129 molecular masses), respectively. […]

In experiment [4] the target is T4, 3A-PEI crystals (polyethylenimine-modified Cry3Aa, Bacillus thuringiensis) (Bacillus thuringiensis subsp. tenebrionis, UniProt P0A379).
T4 construct: made in house; host or cells: Bacillus thuringiensis BT407G
T4 sequence (P0A379 1-644): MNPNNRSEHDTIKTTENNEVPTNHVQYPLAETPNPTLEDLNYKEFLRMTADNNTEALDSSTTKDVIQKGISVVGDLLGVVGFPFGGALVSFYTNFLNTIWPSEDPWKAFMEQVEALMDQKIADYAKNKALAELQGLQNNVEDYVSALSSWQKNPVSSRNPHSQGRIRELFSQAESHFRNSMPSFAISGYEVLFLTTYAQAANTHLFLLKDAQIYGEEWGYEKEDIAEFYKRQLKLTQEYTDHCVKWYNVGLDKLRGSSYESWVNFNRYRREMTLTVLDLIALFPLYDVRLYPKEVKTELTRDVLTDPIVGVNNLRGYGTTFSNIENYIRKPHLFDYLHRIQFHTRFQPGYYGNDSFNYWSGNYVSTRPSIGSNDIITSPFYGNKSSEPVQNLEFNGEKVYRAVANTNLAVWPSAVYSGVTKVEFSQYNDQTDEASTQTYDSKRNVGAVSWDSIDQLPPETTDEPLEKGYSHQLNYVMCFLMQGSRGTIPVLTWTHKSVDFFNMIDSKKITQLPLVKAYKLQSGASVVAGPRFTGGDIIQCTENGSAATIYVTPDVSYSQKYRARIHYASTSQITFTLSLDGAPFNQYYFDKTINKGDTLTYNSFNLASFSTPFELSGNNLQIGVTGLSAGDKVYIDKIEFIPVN
Kind of experiment: NADH binding capacity of 3A-PEI crystals. As to conditions: NaPB 25 mM.

Experiment [5] deals with T1, human arginase I (hArg, Accession Number: NM_000045.4), free enzyme. Kind of experiment: Effect of urea on the activity of hArg. Type of experiment: biochemical. As to conditions: 0 to 1 M urea, 40° C., 6 h. The method, then: as §1, §1

T1 sequence (P05089 whole entry): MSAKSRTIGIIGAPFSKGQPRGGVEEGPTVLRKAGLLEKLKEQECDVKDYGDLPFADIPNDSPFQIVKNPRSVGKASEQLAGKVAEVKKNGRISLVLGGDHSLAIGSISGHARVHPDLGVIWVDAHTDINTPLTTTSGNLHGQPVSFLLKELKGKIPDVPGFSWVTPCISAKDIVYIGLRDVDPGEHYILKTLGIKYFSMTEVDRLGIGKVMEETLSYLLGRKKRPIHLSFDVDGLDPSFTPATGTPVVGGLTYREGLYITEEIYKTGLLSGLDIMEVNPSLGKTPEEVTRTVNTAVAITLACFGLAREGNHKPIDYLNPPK
T2 sequence (P05089 other isoform, or with tags, fused parts or gaps): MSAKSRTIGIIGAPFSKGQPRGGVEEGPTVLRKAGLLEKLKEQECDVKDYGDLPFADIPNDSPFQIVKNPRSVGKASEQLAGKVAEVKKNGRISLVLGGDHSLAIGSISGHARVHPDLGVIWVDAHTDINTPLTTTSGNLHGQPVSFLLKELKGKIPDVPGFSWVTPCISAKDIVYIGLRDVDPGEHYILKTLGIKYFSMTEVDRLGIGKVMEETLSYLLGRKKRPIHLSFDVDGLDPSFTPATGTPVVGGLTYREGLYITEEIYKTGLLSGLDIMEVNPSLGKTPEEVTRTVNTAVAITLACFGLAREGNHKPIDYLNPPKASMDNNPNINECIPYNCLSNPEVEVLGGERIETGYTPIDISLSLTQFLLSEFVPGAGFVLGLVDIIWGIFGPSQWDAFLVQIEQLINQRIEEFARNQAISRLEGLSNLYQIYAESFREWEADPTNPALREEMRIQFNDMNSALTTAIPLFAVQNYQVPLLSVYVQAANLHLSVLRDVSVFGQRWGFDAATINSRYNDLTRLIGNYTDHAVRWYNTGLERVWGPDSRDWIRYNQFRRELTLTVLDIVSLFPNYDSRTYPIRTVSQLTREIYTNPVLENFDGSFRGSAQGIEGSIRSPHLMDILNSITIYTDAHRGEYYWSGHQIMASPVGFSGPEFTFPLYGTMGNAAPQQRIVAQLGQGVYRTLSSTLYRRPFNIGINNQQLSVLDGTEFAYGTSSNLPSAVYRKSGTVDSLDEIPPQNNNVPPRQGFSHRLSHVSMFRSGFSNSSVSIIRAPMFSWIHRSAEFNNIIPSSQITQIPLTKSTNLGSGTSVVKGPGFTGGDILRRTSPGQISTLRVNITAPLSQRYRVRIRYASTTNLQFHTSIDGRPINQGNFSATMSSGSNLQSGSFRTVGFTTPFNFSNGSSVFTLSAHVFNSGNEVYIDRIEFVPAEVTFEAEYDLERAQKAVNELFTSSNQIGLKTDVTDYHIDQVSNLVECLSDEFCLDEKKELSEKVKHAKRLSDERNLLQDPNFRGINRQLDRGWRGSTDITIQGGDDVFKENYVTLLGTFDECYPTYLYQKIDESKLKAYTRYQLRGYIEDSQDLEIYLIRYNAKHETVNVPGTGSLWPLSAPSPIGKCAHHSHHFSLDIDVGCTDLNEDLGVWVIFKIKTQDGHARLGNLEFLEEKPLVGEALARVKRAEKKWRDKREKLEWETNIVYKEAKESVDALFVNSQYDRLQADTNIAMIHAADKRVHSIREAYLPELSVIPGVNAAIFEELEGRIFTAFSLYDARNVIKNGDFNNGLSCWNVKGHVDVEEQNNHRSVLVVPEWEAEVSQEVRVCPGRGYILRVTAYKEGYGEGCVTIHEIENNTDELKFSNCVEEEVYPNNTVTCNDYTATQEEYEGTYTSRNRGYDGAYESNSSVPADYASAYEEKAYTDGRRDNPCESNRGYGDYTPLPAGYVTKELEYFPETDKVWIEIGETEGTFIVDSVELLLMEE

Take `N=C(N)NCCC[C@H](N)C(=O)O` [L-arginine]: the values for the kcat in experiment [1] and in experiment [2] were 99.9 ± 1.7 s⁻¹ and 59.7 ± 0.8 s⁻¹, respectively. Further, the results for the Km in experiment [1] (read-out: appKm) and in experiment [2] (read-out: appKm) were 20 ± 1.3 mM and 18.5 ± 0.3 mM, respectively.
For `NC(=O)C1=CN([C@@H]2O[C@H](COP(=O)(O)OP(=O)(O)OC[C@H]3O[C@@H](n4cnc5c(N)ncnc54)[C@H](O)[C@@H]3O)[C@@H](O)[C@H]2O)C=CC1` [NADH, nicotinamide adenine dinucleotide], the NADH binding capacity in experiment [3] was 11.2 ± 0.7 µmol/g; in experiment [4] (pH 6.0) it was 453.5 ± 2.8 µmol/g; in experiment [4] (pH 7.0), 412 ± 4 µmol/g; in experiment [4] (pH 8.0), 350.2 ± 3.6 µmol/g.
As to `NC(N)=O` [urea], the “effect of urea on activity” value in experiment [5] was “unaffected”.
